Data published in patent publication US9365534B2, “Arylated camphenes, processes for their preparation and uses thereof” (Yissum Research Development Company of the Hebrew …, priority 2009, dated 2016).

Test system: closed head injury (CHI)
Assay: Closed head injury (CHI) model, neurological severity score, Sabra mice
Type: in vivo
Conditions: SR144528 1 mg/kg i.p. 1 h after CHI, 24 h to 14 day, vs vehicle control
Procedure: The study was conducted according to the guidelines of the Institutional Animal Care Committee of the Hebrew University. Male Sabra mice weighing 35 to 50 g were used in all experiments. Animals were kept under controlled light conditions with a 12 h/12 h light/dark cycle. Experimental closed head injury (CHI) was induced using a modified weight drop device developed in our laboratory as described previously (Chen et al., 1996). At 1 h after CHI, the functional status of the mice was evaluated according to a set of 10 neurobehavioral tasks, namely the neurological severity score (NSS). This score is based on the ability of the mice to perform 10 different tasks (Beni-Adani et al., 2001) that evaluate their motor ability, balance, and alertness. One point is given for failing to perform a task. […] A score of 10 reflects maximal neurologic impairment, and a decrease of NSS during the recovery period indicates partial recovery of function.
Data was analyzed using the Prism 4.02 programme (GraphPad Software, San Deigo, Calif., USA). The data are expressed as mean±SEM and statistical significance was assessed with one way analysis of variance (ANOVA) followed by a Dunnett's post-hoc analysis for TNF-α levels. Nonparametric NSS values were compared between the two groups at each time point.
In this study four groups of mice were subjected to CHI (n=10/group and control n=9), after which the following agents were administered: • Group 1 (Control): Vehicle only (ethanol:cremophor:saline at ratio of 1:1:18), 1 h after CHI. • Group 2: HU-910, 0.1 mg/kg, dissolved in vehicle (1:1:18 ethanol:cremophor:saline), i.p. 1 h after CHI. • Group 3: HU-910, 1.0 mg/kg, dissolved in vehicle (1:1:18 ethanol:cremophor:saline), i.p. 1 h after CHI. • Group 4: HU-910, 10.0 mg/kg, dissolved in vehicle (1:1:18 ethanol:cremophor:saline), i.p. 1 h after CHI.
In this study four groups of mice were subjected to CHI (n=9/group), after which the following agents were administered: • Group 1 (Control): Vehicle only (ethanol:cremophor:saline at ratio of 1:1:18), 1 h after CHI. • Group 2: HU-910, 10 mg/kg, dissolved in vehicle (1:1:18 ethanol:cremophor:saline), i.p. 1 h after CHI. • Group 3: Specific CB2 antagonist SR144528 (N-[(1S)-endo-1,3,3-trimethylbicyclo[2.2.1]heptan-2-yl]-5-(4-chloro-3-methylphenyl)-1-(4-methylbenzyl)pyrazole-3 carboxamide), (see M. Rinaldi-Carmona, et al. J. Pharmacol. Exp. Ther. 284 (1998) 644-650), 1 mg/kg, i.p. 1 h after CHI. • Group 4: Specific CB2 antagonist (SR144528, N-[(1S)-endo-1,3,3-trimethylbicyclo[2.2.1]heptan-2-yl]-5-(4-chloro-3-methylphenyl)-1-(4-methylbenzy)pyrazole-3 carboxamide), 1 mg/kg, i.p. 1 h after CHI and HU-910 10 mg/kg administered 10 min after administration of antagonist.
In this study four groups of mice were subjected to CHI (n=7-8/group), after which the following agents were administered: • Group 1 (Control): Vehicle only (Dimethyl Sulfoxide (DMSO): Tween 80: Saline at ratio of 1:1:18), i.p. 1 h after CHI. • Group 2: HU-910, 10 mg/kg, dissolved in Vehicle, i.p. 1 h after CHI. • Group 3: Specific CB2 antagonist/inverse agonist AM630 (6-Iodo-2-methyl-1-[2-(4-morpholinyl)ethyl]-1H-indol-3-yl](4-methoxyphenyl)methanone) (Ross et al. 1999)), dissolved in Vehicle, 1 mg/kg, i.p. 1 h after CHI and HU-910, dissolved in Vehicle, 10 mg/kg administered 10 min after administration of antagonist/inverse agonist. • Group 4: Specific CB2 antagonist/inverse agonist AM630 (6-Iodo-2-methyl-1-[2-(4-morpholinyl)ethyl]-1H-indol-3-yl](4-methoxyphenyl)methanone), dissolved in Vehicle, 1 mg/kg, i.p. 1 h after CHI

N-[(1S)-endo-1,3,3-trimethylbicyclo[2.2.1]heptan-2-yl]-5-(4-chloro-3-methylphenyl)-1-(4-methylbenzyl)pyrazole-3 carboxamide [SR144528, reference compound]
extent of recovery ΔNSS, antagonist alone: recovery was significantly reduced
